From patent US9567371B2, “Short beta-defensin-derived peptides” (Yeda Research and Development Co. Ltd., priority 2009, dated 2017)
Peptide text beside a SMILES is read from it.

Tests used:
pre-B-ALL G2 cells = assay: Cell toxicity assay (propidium iodide exclusion, flow cytometry); format: cell-based, human; conditions: 6 and 24 h, FIG. 1
Method: FIG. 1. […] G2 cells (1×10^6/ml) were cultured in 96-well flat-bottom wells in serum free IMDEM culture medium supplemented with L-glutamine and antibiotics, for 6 and 24 h at 37° C. with the indicated peptides. Untreated cells served as a control. After treatment, cells were stained with propidium iodide (PI) and its exclusion was analyzed by flow cytometry. Data shown are the percentage of Pr (dead) cells. Vertical bars represent standard deviation of duplicate experiments. *P<0.05 compared to untreated control.
Pre-B-ALL G2 cells and freshly isolated primary human CD3^+ T cells (1×10^6/ml) were cultured in 96-well flat-bottom wells in serum free IMDM or RPMI 1640 medium, respectively, both supplemented with L-glutamine and antibiotics, for 6 and 24 hrs at 37° C. (95% humidity, 5% CO2) with 10 μM, 100 μM or 1 mM of the peptides. Untreated cells served as a control. Cell viability was determined by propidium iodide (PI) exclusion by flow cytometry as described (Goichberg, P., et al., 2006).
In order to test cytotoxicity of the peptides, human pre-B-ALL G2 cells and freshly isolated primary human CD3^+ T cells (1×10^6/ml) were cultured in with 10 μM, 100 μM or 1 mM of TL-1, AK-1 and cyclic TL-1, as described in the Material and Methods. All tested peptides were not toxic for G2 cells (FIG. 1) as well as for primary human T cells at 10 μM and 100 μM. Even in the highest concentration, 1 mM, the peptides killed only 8-12% and 14-16% cells treated for 6 and 24 hrs, respectively, indicating a very low cytotoxicity of the peptides.

SDF-1 = SDF-1 plasma levels in injected mice (ELISA); format: in vivo, mouse; conditions: 5 mg/kg s.c., compared with mice injected with PBS
Method: (§1) SDF-1 levels in tested samples were determined by ELISA as described (Kalinkovich, A., et al., 2006) where the K15C monoclonal antibodies (mAb, INRA, Paris, France) recognizing the first three amino acids of SDF-1 were utilized as a capture Ab (10 μg/mL) in order to measure levels of intact, non-cleaved SDF-1. Levels of basic FGF (bFGF) and HGF in tested samples were determined by using corresponding capture mAbs and polyclonal biotynilated Abs (R&D Systems) as recommended by the manufacturer. In order to examine SDF-1, bFGF and HGF levels in cell supernatants, MS-5, MBA-15 and MG-63 cells were seeded in 24-well Costar wells and cultivated in RPMI 1640 or αMEM Eagle medium, respectively, with 10% FCS. When the cells reached confluence, the medium was changed to serum free medium and cells were cultivated for additional 6 hrs in the presence of various concentrations of the peptides. Medium samples were collected and centrifuged 10 min at 6000×g at 4° C. to remove cell debris. Supernatants were collected and kept at −70° C. until tested.

MS-5 cells = assay: SDF-1, bFGF and HGF secretion by stromal cells (ELISA of supernatants); format: cell-based, mouse; conditions: 10 μM, compared with untreated cells
Method: (§2) FIGS. 7A-7F. Effect of TL-1, AK-1 and cyclic TL-1 on SDF-1, bFGF and HGF secretion by different stromal cell lines. MS-5, MBA-15 and MG-63 cells were co-cultured with 10 μM TL-1, AK-1 or cyclic TL-1 in the serum free medium for 6 hrs, or without added peptide (UT). Levels of SDF-1 (A-C), bFGF (D) and HGF (E, F) were detected in the collected supernatants by ELISA. Data shown are the mean±SD of 2 separate experiments. *P<0.05 compared to control.
as §1
(§3) Because BM stromal cells, such as endosteal bone lining osteoblasts and endothelial cells are the main source of human and murine SDF-1, the capability of the peptides to affect SDF-1 secretion by mouse stromal MS-5 and MBA-15 cells, and human osteoblast MG-63 cells was examined.
(§4) In order to examine the capability of the peptides to induce secretion of other proteins, the levels of Hepatocyte growth factor (HGF) and Basic fibroblast growth factor (bFGF) were detected in the same supernatants.

MBA-15 cells = assay: as above; format: cell-based, mouse; conditions: 10 μM, compared with untreated cells
Method: as §2, §1, §3, §4

MG-63 cells = assay: as above; format: cell-based, human; conditions: 10 μM, compared with untreated cells
Method: as §2
as §1, with “When the cells reached confluence, the medium was changed to serum free medium and cells were cultivated for additional 6 hrs in the presence of various concentrations of the peptides. Medium samples were collected and centrifuged 10 min at 6000×g at 4° C. to remove cell debris. Supernatants were collected and kept at −70° C. until tested.” left out
as §4

| SMILES | cellular toxicity (percentage of PI+ dead cells) (pre-B-ALL G2 cells) | SDF-1 plasma levels (SDF-1) | levels of SDF-1 in supernatants (MS-5 cells) | levels of SDF-1 in supernatants (MBA-15 cells) | levels of SDF-1 in supernatants (MG-63 cells) |
| --- | --- | --- | --- | --- | --- |
| N=C(N)NCCC[C@H](NC(=O)CNC(=O)[C@@H](N)CO)C(=O)N[C@@H](CCCCN)C(=O)N[C@@H](CS)C(=O)N[C@@H](CS)C(=O)N[C@@H](CCCNC(=N)N)C(=O)N[C@@H](CCCCN)C(=O)N[C@@H](CCCCN)C(=O)N[C@@H](CCCCN)C(=O)O [AK-1, SGRKCCRKKK] (H-SGRKCCRKKK-OH) | Low cellular toxicity |  |  |  |  |
| c1cc(CN2CCCNCCNCCCNCC2)ccc1CN1CCCNCCNCCCNCC1 [AMD3100, reference compound] |  | significant elevation | did not affect | did not affect | did not affect |
| N=C(N)NCCC[C@H](NC(=O)CNC(=O)[C@@H](N)CCCNC(=N)N)C(=O)N[C@@H](CCCCN)C(=O)N[C@@H](CS)C(=O)N[C@@H](CS)C(=O)N[C@@H](CCCNC(=N)N)C(=O)N[C@@H](CCCNC(=N)N)C(=O)N[C@@H](CCCCN)C(=O)N[C@@H](CCCCN)C(=O)O [TL-1, RGRKCCRRKK] (H-RGRKCCRRKK-OH) | Low cellular toxicity |  |  |  |  |
